Source: patent US4188378A, “Anticancer and antiviral activity of 9-β-D-arabinofuranosyl-2-fluoroadenine” (The United States of America as represented by the …, priority 1978, dated 1980)
Where two headings read alike, the source gives them in different places.

Tested on: L1210 cells
Assay: Macromolecular synthesis in L1210 cells in culture (radiolabel incorporation)
Assay type: cell-based
Conditions: for activity at 1 µg/mL / activity at 3 µg/mL / activity at 10 µg/mL / inhibition at 10 µg/mL: Mus musculus, L1210; for activity at 1 µg/mL: 1.0 μg/ml; for activity at 3 µg/mL: 3.0 μg/ml; for activity at 10 µg/mL: 10.0 μg/ml
Description: ^a Inhibitor was added to L1210 cells growing in culture; radioactive
substrate was added 30 min. later.
hrs after addition of radioactive substrate to culture medium.
^b Incorporation of [C^3 H3 thymidine or [5^3 Huridine
^c Incorporation of [5^3 Huridine into RNA.
^d Incorporation of [4,5^3 HL-leucine into protein.

[1] = read-out: DNA synthesis, TdR-3H incorporation, Treated as % of Control
[2] = read-out: DNA synthesis, UR-3H incorporation, Treated as % of Control
[3] = read-out: Protein synthesis, Leu-3H incorporation, Treated as % of Control
[4] = read-out: RNA synthesis, UR-3H incorporation, Treated as % of Control
[5] = same experimental conditions as Table 1

Nc1nc(F)nc2c1ncn2[C@@H]1O[C@H](CO)[C@@H](O)[C@@H]1O [2-F-AraA, 9-β-D-arabinofuranosyl-2-fluoroadenine]
DNA synthesis in L1210 cells in culture: inhibited DNA synthesis
inhibition of RNA synthesis (10 μg/ml): generally not inhibited
activity at 1 µg/mL [1]: 102%
activity at 1 µg/mL [2]: 84%
activity at 1 µg/mL [3]: 119%
activity at 1 µg/mL [4]: 135%
activity at 3 µg/mL [1]: 49%
activity at 3 µg/mL [2]: 36%
activity at 3 µg/mL [3]: 86%
activity at 3 µg/mL [4]: 163%
activity at 10 µg/mL [1]: 18%
activity at 10 µg/mL [2]: 11%
activity at 10 µg/mL [3]: 66%
activity at 10 µg/mL [4]: 137%
inhibition at 10 µg/mL (10 μg/ml, read-out: inhibition of DNA synthesis): 90%
inhibition at 10 µg/mL (10 μg/ml, read-out: inhibition of protein synthesis): 30%
Protein synthesis in L1210 cells in culture [5]: less affected
RNA synthesis in L1210 cells in culture [5]: not inhibited
